Assay results as given in US20100152152A1, “Therapeutic Use of Nefopam” (priority 2005, published 2010).
Structures can show the parent of a compound that is named as a salt. Marks after values point to notes of the source that are not given here.

What was measured:
[1] = test system: Mice; experiment: Marble Burying Test (anxiolytic/tranquillizing activity); format: in vivo; conditions: 30 minutes before the test, 30 minute test
Protocol: Nefopam and (+)-nefopam were evaluated in the Marble Burying Test, a model which detects anxiolytic/tranquillizing activity. This is a general model for affective disorders.
The method follows that described by Broekkamp et al. (1986 Eur. J. Pharmacol., 126, 223-229. Mice exposed to novel objects (marbles) will bury them in the sawdust floor covering. Anxiolytics decrease the number of marbles buried at non-sedative doses.
Mice are individually placed in transparent plastic cages (33×21×18 cm) with 5 cm of sawdust on the floor and 25 marbles grouped in the centre of each cage. Each test cage is covered with an inverted plastic covering. Each test cage, together with the marbles, is impregnated with mouse odor beforehand, by leaving 10 mice in the cage for 15 minutes. These mice then play no further role in the experiment. The number of marbles covered by sawdust (⅔ or more) is counted at the end of a 30 minute test.
All compounds were administered i.p. 30 minutes before the test, and compared with a vehicle control group. Clobazam (8 mg/kg i.p.), administered under the same experimental conditions, was used as reference substance.

[2] = conventional release preparations; cited from earlier work
[3] = test system: dopamine, norepinephrine and serotonin uptake; conditions: in vitro and in vivo; Fasmer et al., 1987; Rosland and Hole, 1990; Mather at al., 2001; cited from earlier work

Row | Compound | Number of marbles buried (% change from ctrl) ([1]; 10 mg/kg ip) | Number of marbles buried (% change from ctrl) ([1]; 20 mg/kg ip) | Number of marbles buried (% change from ctrl) ([1]; 40 mg/kg ip) | elimination half-life [2] | order of potency (analgesic and dopamine, norepinephrine and serotonin uptake inhibitory properties) [3] | Number of marbles buried (% change from ctrl) ([1]; 32 mg/kg ip)
1 | CN1CCOC(c2ccccc2)c2ccccc2C1 (racemic) [Nefopam, 5-methyl-1-phenyl-3,4,5,6-tetrahydro-1H-2,5-benzoxazocine hydrochloride] | −66* % change from ctrl | −98* % change from ctrl | −100* % change from ctrl | four |  | 
2 | CN1CCO[C@@H](c2ccccc2)c2ccccc2C1 [(+)-nefopam] | −56* % change from ctrl | −99* % change from ctrl | −100* % change from ctrl |  | (+)-nefopam>(±)-nefopam>(−)-nefopam | 
3 | CN1C(=O)CC(=O)N(c2ccccc2)c2cc(Cl)ccc21 [Clobazam] |  |  |  |  |  | −75* % change from ctrl
